Reference: patent US20230172959A1, “USE OF NMN FOR THE PREVENTION AND/OR TREATMENT OF A BACK PAIN AND CORRESPONDING COMPOSITIONS” (NUVAMID SA, priority 2020, published 2023)
Several values for one entry are separate records, joined by “and”; a condition that tells them apart may be missing. Equal values may be shown once.

Assays:
chronic lumbalgia [1] = experiment: Visual Analogue Scale (VAS) of lumbalgia pain, 10-day satisfaction study in 12 volunteers; type: in vivo, human; conditions: for VAS lumbalgia pain, median / VAS lumbalgia pain, mean: 5% NMN oil-in-water emulsion topical twice a day, scale 0-100; for VAS lumbalgia pain, median: baseline D 0 72.5; for VAS lumbalgia pain, mean: baseline D 0 73.4
Protocol: A satisfaction study was carried out on a group of 12 volunteers, aged 42±8 years, consisting of seven female and five male subjects. The main objective of this study was to evaluate the level of satisfaction of subjects with regard to the evolution of their lumbalgia (low back pain) during the morning and/or evening application of a composition according to the invention containing 5% by weight of NMN. The duration of the existence of pains in the lumbar spine region was on average 4±3 years (ie […]) while the current pains of the subjects dated back to 2±3 years pre-baseline (before inclusion). These pains occurred mostly spontaneously (58.3%). More precisely, seven participants presented with a lumbalgia of spontaneous origin, one participant presented with a lumbalgia resulting from a physical or sporting activity, two participants attributed their lumbalgia to the practice of gardening, and two other participants attributed their lumbalgia to another of these causes. The participants therefore all had chronic lumbalgia. A composition in the form of an oil-in-water emulsion comprising 5% NMN was formulated as follows, the ingredients being designated by their INCI (International Nomenclature of Cosmetic Ingredients) name: Aqua, Paraffinum liquidum, Cetyl alcohol, Glyceryl stearate, Benzyl PCA, Ceteareth-20, Ceteareth-12, Cetyl Palmitate, Cocoglycerides, Cetearyl alcohol, Sodium Hydroxide, NMN. The composition was prepared according to any method well known to the person skilled in the art. The study took place over 10 days. At baseline, ie upon inclusion (DO), the selected subjects provide their demographic characteristics (age, weight, height), indicate the period of persistence and intensity of the pain on a Visual Analogue Scale, and complete the WOMAC and Lequesne questionnaires. These different scales were used in order to assess by different means the effect of NMN on lumbalgia. Over the subsequent 9 day period, each evening the subjects fill in the Visual Analogue Scale of pain, ensuring any discomfort or problems arising or the taking of analgesics are reported therein. On day 10, the volunteers complete the WOMAC questionnaire, the Lequesne questionnaire, the Visual Analogue Scale (VAS) of pain, indicating the perceived improvement in lumbalgia pain relief as measured by the PGI-I index (abbreviation for “Patient Global Improvement Impression”), satisfaction with regard to evolution of the lumbalgia on a Likert scale as well as the ease of application and penetration of the composition, assessment of the texture and odour of the composition, likelihood of re-use thereof in the event of recurrence of a similar pain, and recommendation of use to third parties presenting with pain of similar nature. The PGI-I index is an index that serves as means for evaluating the response to a treatment. The Likert scale is a psychometric tool used for measuring an attitude in individuals, which consists of one or more statements for which the individual responding expresses their degree of agreement or disagreement.

chronic lumbalgia [2] = experiment: Perceived improvement (PGI-I index) and satisfaction with evolution of lumbalgia (Likert scale); type: in vivo, human; conditions: end of the study
Protocol: A satisfaction study was carried out on a group of 12 volunteers, aged 42±8 years, consisting of seven female and five male subjects. The main objective of this study was to evaluate the level of satisfaction of subjects with regard to the evolution of their lumbalgia (low back pain) during the morning and/or evening application of a composition according to the invention containing 5% by weight of NMN. A composition in the form of an oil-in-water emulsion comprising 5% NMN was formulated as follows, the ingredients being designated by their INCI (International Nomenclature of Cosmetic Ingredients) name: Aqua, Paraffinum liquidum, Cetyl alcohol, Glyceryl stearate, Benzyl PCA, Ceteareth-20, Ceteareth-12, Cetyl Palmitate, Cocoglycerides, Cetearyl alcohol, Sodium Hydroxide, NMN. The composition was prepared according to any method well known to the person skilled in the art. On day 10, the volunteers complete the WOMAC questionnaire, the Lequesne questionnaire, the Visual Analogue Scale (VAS) of pain, indicating the perceived improvement in lumbalgia pain relief as measured by the PGI-I index (abbreviation for “Patient Global Improvement Impression”), satisfaction with regard to evolution of the lumbalgia on a Likert scale as well as the ease of application and penetration of the composition, assessment of the texture and odour of the composition, likelihood of re-use thereof in the event of recurrence of a similar pain, and recommendation of use to third parties presenting with pain of similar nature. The PGI-I index is an index that serves as means for evaluating the response to a treatment. The Likert scale is a psychometric tool used for measuring an attitude in individuals, which consists of one or more statements for which the individual responding expresses their degree of agreement or disagreement.

Question: Which results are given for `NC(=O)c1ccc[n+]([C@@H]2O[C@H](COP(=O)([O-])O)[C@@H](O)[C@H]2O)c1` (stereo in doubt) [NMN, nicotinamide mononucleotide]?
Answer: reduction of lumbalgia pain measured by the VAS (chronic lumbalgia [1]; 10 days of application vs baseline, 5% NMN emulsion topical, p<0.0001): 58.7±29.2% and 58.7%; VAS lumbalgia pain, median (chronic lumbalgia [1]; D 1): 60.5; VAS lumbalgia pain, mean (chronic lumbalgia [1]; D 1): 61.1; VAS lumbalgia pain, median (chronic lumbalgia [1]; D 2): 59.0; VAS lumbalgia pain, mean (chronic lumbalgia [1]; D 2): 56.8; VAS lumbalgia pain, median (chronic lumbalgia [1]; D 3): 57.5; VAS lumbalgia pain, mean (chronic lumbalgia [1]; D 3): 52.3; VAS lumbalgia pain, median (chronic lumbalgia [1]; D 4): 51.0; VAS lumbalgia pain, mean (chronic lumbalgia [1]; D 4): 49.4; VAS lumbalgia pain, median (chronic lumbalgia [1]; D 5): 45.5; VAS lumbalgia pain, mean (chronic lumbalgia [1]; D 5): 45.7; VAS lumbalgia pain, median (chronic lumbalgia [1]; D 6): 42.5; VAS lumbalgia pain, mean (chronic lumbalgia [1]; D 6): 42.4; VAS lumbalgia pain, median (chronic lumbalgia [1]; D 7): 48.0; VAS lumbalgia pain, mean (chronic lumbalgia [1]; D 7): 45.2; VAS lumbalgia pain, median (chronic lumbalgia [1]; D 8): 38.0; VAS lumbalgia pain, mean (chronic lumbalgia [1]; D 8): 35.8; VAS lumbalgia pain, median (chronic lumbalgia [1]; D 9): 26.0; VAS lumbalgia pain, mean (chronic lumbalgia [1]; D 9): 28.3; VAS lumbalgia pain, median (chronic lumbalgia [1]; D 10): 30.0; VAS lumbalgia pain, mean (chronic lumbalgia [1]; D 10): 30.8±22.6 and 30.8; mean time period to obtain an initial 50% reduction in pain relative to baseline (chronic lumbalgia [1]; VAS, 5% NMN emulsion topical twice a day): 5.0 ± 2.9 days; subjects with improvement characterised as 'considerable' (chronic lumbalgia [2]; 3 subjects): 25.0%; subjects with improvement characterised as 'a lot' (chronic lumbalgia [2]; 4 subjects): 33.3%; subjects with improvement characterised as 'slight' (chronic lumbalgia [2]; 4 subjects): 33.3%; subjects who experienced improvement (chronic lumbalgia [2]; 12 subjects): 91.7%; participants satisfied with the evolution of their chronic lumbalgia (chronic lumbalgia [2]; Likert scale): 91.7%; participants very satisfied with the evolution of their chronic lumbalgia (chronic lumbalgia [2]; Likert scale): 33.3%
